# Reference: patent US10080366B2, “Agent for increasing sugar content in fruit” (RIKEN, priority 2012, dated 2018)
# Tested on: fruit of grape (variety: Red Globe)
# Assay: not given
# Details: 5 days later
# Procedure: An agent for increasing a sugar content in a fruit (containing Sorbon T-20 as a spreader/sticker at a final concentration of 200 μL/L) diluted with water to have a potassium hydrogen carbonate concentration of 10 g/L was prepared. The mass of fruit of grape (variety: Red Globe) purchased on the market was measured. Then, the prepared agent for increasing a sugar content in a fruit was applied by spraying to the fruit of grape. Then, the fruit of grape was allowed to stand in an air-conditioned greenhouse (temperature: 25° C.), and the mass was measured over time (date of application: Apr. 27, 2011; dates of test: May 2, 2011, May 6, 2011, May 9, 2011, May 11, 2011, May 13, 2011, and May 16, 2011). In addition, as a control, the mass of untreated grape was measured on each date of measurement in the same manner.
# On the basis of the measured mass, the estimated amount (cumulative value) of transpiration and the estimated amount of transpiration per day were calculated. The results are shown in Tables 5 and 6 and FIGS. 10 and 11.
# Note that the vertical axis in FIG. 10 represents the mass (g) of the fruit of grape on each of the dates of measurement per 100 g of the fruit of grape on the date of application, and the vertical axis in FIG. 11 represents the estimated amount (g) of transpiration on each of the dates of measurement per 100 g of the fruit of grape on the date of application. The estimated amount (g) of transpiration on each of the dates of measurement per 100 g of the fruit of grape on the date of application=(the mass (g) of the fruit of grape on the date of application−the mass (g) of the fruit of grape on the date of measurement)/the mass of the fruit of grape on the date of application×100
row,SMILES,Estimated amount (g) of transpiration per 100 g of fruit on date of application
1,"O=C([O-])[O-].[Na+].[Na+] [Sodium carbonate, sodium carbonate]",14.1 g
2,"O=C([O-])O.[Na+] [Sodium hydrogen carbonate, sodium hydrogen carbonate]",12.4 g
3,"O=P([O-])([O-])[O-].[K+].[K+].[K+] [Tripotassium phosphate, tripotassium phosphate]",15.9 g

# Same assay, conditions: 5 days later (applied Apr. 27)
row,SMILES,Mass (g) of fruit per 100 g of fruit on date of application
1,"O=C([O-])[O-].[Na+].[Na+] [Sodium carbonate, sodium carbonate]",85.9 g
2,"O=C([O-])O.[Na+] [Sodium hydrogen carbonate, sodium hydrogen carbonate]",87.6 g
3,"O=P([O-])([O-])[O-].[K+].[K+].[K+] [Tripotassium phosphate, tripotassium phosphate]",84.1 g

# Same assay, conditions: 9 days later
SMILES,Estimated amount (g) of transpiration per 100 g of fruit on date of application,Mass (g) of fruit per 100 g of fruit on date of application
"O=C([O-])[O-].[Na+].[Na+] [Sodium carbonate, sodium carbonate]",24.1 g,75.9 g
"O=C([O-])O.[Na+] [Sodium hydrogen carbonate, sodium hydrogen carbonate]",21.7 g,78.3 g
"O=P([O-])([O-])[O-].[K+].[K+].[K+] [Tripotassium phosphate, tripotassium phosphate]",26.3 g,73.7 g

# Same assay, conditions: 12 days later
SMILES,Estimated amount (g) of transpiration per 100 g of fruit on date of application,Mass (g) of fruit per 100 g of fruit on date of application
"O=C([O-])[O-].[Na+].[Na+] [Sodium carbonate, sodium carbonate]",30.3 g,69.7 g
"O=C([O-])O.[Na+] [Sodium hydrogen carbonate, sodium hydrogen carbonate]",27.3 g,72.7 g
"O=P([O-])([O-])[O-].[K+].[K+].[K+] [Tripotassium phosphate, tripotassium phosphate]",33.1 g,66.9 g

# Same assay, conditions: 14 days later
SMILES,Estimated amount (g) of transpiration per 100 g of fruit on date of application,Mass (g) of fruit per 100 g of fruit on date of application
"O=C([O-])[O-].[Na+].[Na+] [Sodium carbonate, sodium carbonate]",34.6 g,65.4 g
"O=C([O-])O.[Na+] [Sodium hydrogen carbonate, sodium hydrogen carbonate]",31.5 g,68.5 g
"O=P([O-])([O-])[O-].[K+].[K+].[K+] [Tripotassium phosphate, tripotassium phosphate]",37.6 g,62.4 g

# Same assay, conditions: 16 days later
SMILES,Estimated amount (g) of transpiration per 100 g of fruit on date of application,Mass (g) of fruit per 100 g of fruit on date of application
"O=C([O-])[O-].[Na+].[Na+] [Sodium carbonate, sodium carbonate]",38.7 g,61.3 g
"O=C([O-])O.[Na+] [Sodium hydrogen carbonate, sodium hydrogen carbonate]",35.6 g,64.4 g
"O=P([O-])([O-])[O-].[K+].[K+].[K+] [Tripotassium phosphate, tripotassium phosphate]",41.1 g,58.3 g

# Same assay, conditions: 19 days later
SMILES,Estimated amount (g) of transpiration per 100 g of fruit on date of application,Mass (g) of fruit per 100 g of fruit on date of application
"O=C([O-])[O-].[Na+].[Na+] [Sodium carbonate, sodium carbonate]",44.5 g,55.5 g
"O=C([O-])O.[Na+] [Sodium hydrogen carbonate, sodium hydrogen carbonate]",41.5 g,58.5 g
"O=P([O-])([O-])[O-].[K+].[K+].[K+] [Tripotassium phosphate, tripotassium phosphate]",47.4 g,52.8 g

# Tested on: clusters of grape (variety: Crimson)
# Assay: Estimated transpiration ratio of grape clusters (Example 9)
# Assay type: in vivo
# Details: 10 g/L; 8 days after treatment
SMILES,Estimated transpiration ratio (%) Average,Estimated transpiration ratio (%) First,Estimated transpiration ratio (%) Second
"O=C([O-])C(O)C(O)C(=O)[O-].[K+].[K+] (racemic) [DL-Potassium tartrate, reference compound]",22%,22%,
"CC(O)C(=O)[O-].[Na+] (racemic) [DL-Sodium lactate, reference compound]",26%,26%,25%
"N.N.O=C(O)O [Ammonium carbonate, reference compound]",26%,25%,28%
"N.N.O=S(=O)(O)O [Ammonium sulfate, reference compound]",22%,21%,23%
"O=P([O-])([O-])O.[K+].[K+] [Dipotassium hydrogen phosphate, dipotassium hydrogen phosphate]",28%,28%,
"O=P([O-])([O-])O.[Na+].[Na+] [Disodium hydrogen phosphate, disodium hydrogen phosphate]",31%,35%,28%
O=C([O-])CCC(=O)[O-].[Na+].[Na+] [Disodium succinate],31%,31%,
"O=C([O-])[O-].[Mg+2] [Magnesium carbonate, magnesium carbonate]",32%,32%,
"[Cl-].[Cl-].[Mg+2] [Magnesium chloride, reference compound]",25%,25%,
"O=S(=O)([O-])[O-].[Mg+2] [Magnesium sulfate, reference compound]",23%,23%,
"CC(=O)[O-].[K+] [Potassium acetate, potassium acetate]",35%,35%,35%
"[Cl-].[K+] [Potassium chloride, reference compound]",25%,25%,
"O=S(=O)([O-])[O-].[K+].[K+] [Potassium sulfate, reference compound]",24%,24%,
CC(=O)[O-].O.O.O.[Na+] [Sodium acetate trihydrate],34%,35%,33%
"O=C([O-])[O-].[Na+].[Na+] [Sodium carbonate, sodium carbonate]",32%,32%,
"[Cl-].[Na+] [Sodium chloride, reference compound]",22%,22%,
"O=C([O-])O.[Na+] [Sodium hydrogen carbonate, sodium hydrogen carbonate]",30%,33%,28%
O=C([O-])CC(O)(CC(=O)[O-])C(=O)[O-].[K+].[K+].[K+] [Tripotassium citrate],30%,32%,28%

# Tested on: Tomato
# Assay: not given
# Details: dilution ratio 50 (20 g/L); 6 days after treatment
row,SMILES,Ratio (%) of decrease in body weight of fruit
1,"CC(=O)[O-].[Na+] [Sodium acetate, sodium acetate]",14.5%

# Same assay, conditions: dilution ratio 100 (10 g/L); 6 days after treatment
row,SMILES,Ratio (%) of decrease in body weight of fruit
1,"CC(=O)[O-].[Na+] [Sodium acetate, sodium acetate]",15.6%
2,"O=C([O-])[O-].[Na+].[Na+] [Sodium carbonate, sodium carbonate]",12.7%
3,"O=C([O-])O.[Na+] [Sodium hydrogen carbonate, sodium hydrogen carbonate]",12.8%

# Tested on: Mikan
# Assay: not given
# Details: dilution ratio 50 (20 g/L); 6 days after treatment
row,SMILES,Ratio (%) of decrease in body weight of fruit
1,"CC(=O)[O-].[Na+] [Sodium acetate, sodium acetate]",11.4%

# Same assay, conditions: dilution ratio 100 (10 g/L); 6 days after treatment
row,SMILES,Ratio (%) of decrease in body weight of fruit
1,"CC(=O)[O-].[Na+] [Sodium acetate, sodium acetate]",11.2%
2,"O=C([O-])[O-].[Na+].[Na+] [Sodium carbonate, sodium carbonate]",10.4%
3,"O=C([O-])O.[Na+] [Sodium hydrogen carbonate, sodium hydrogen carbonate]",11.4%

# Tested on: harvested fruit of grape (variety: Barikan)
# Assay: not given
# Details: 10 g/L; 25° C.
# Procedure: The fruit of grape was maintained in an air-conditioned greenhouse (temperature: 25° C.), and measured for the mass over time. The sugar content of the fruit was measured before the application and 8 days after the application with a sugar content meter. Next, on the assumption that the change in the mass of the fruit was entirely due to the change in water content, calculated values of the amount of decrease in mass and the sugar content on the date (June 2) of the application were determined […] by using the following calculation formula. (Calculated as follows: the sugar content (%) calculated value))=the sugar content (%) before application×the mass (g) on the date of application/the mass (g) on the date of measurement))
row,SMILES,"Sugar content (%) 8 days later, actually measured value"
1,"[Ca+2].[Cl-].[Cl-] [Calcium chloride, reference compound]",20.0%

# Same assay, conditions: 10 g/L; 25° C.; mass 100 g on date of application
SMILES,Mass (g) 6 days later (Jun. 8),Mass (g) 8 days later (Jun. 10)
"[Ca+2].[Cl-].[Cl-] [Calcium chloride, reference compound]",86.3 g,81.9 g

# Same assay, conditions: 10 g/L; 8 days
row,SMILES,action to increase the sugar content in the fruit (comparison)
1,"[Ca+2].[Cl-].[Cl-] [Calcium chloride, reference compound]",almost the same as that of the untreated group

# Same assay, conditions: 10 g/L; calculated from decrease in mass
row,SMILES,"Sugar content (%) 8 days later, calculated value"
1,"[Ca+2].[Cl-].[Cl-] [Calcium chloride, reference compound]",20.8%

# Same assay, conditions: before application
row,SMILES,Sugar content (%) on date of application (Jun. 2)
1,"[Ca+2].[Cl-].[Cl-] [Calcium chloride, reference compound]",17.0%
